Laboratory results as given in patent US12527736B2, “Punica granatum extract and its cosmetic uses” (L'OREAL, priority 2019, dated 2026).

System: Normal human fibroblasts
Assay: Peroxidation of lipids test: protection against UVA-induced lipid peroxidation (8-iso-Prostanes release)
Format: cell-based
Conditions: pure ellagic acid at 3 μM for 24 h, then UVA exposure, assayed 2 h30 after exposure
Experimental: An evaluation of the protection potential against UVA-induced lipid peroxidation of Punica granatum extract according to the invention obtained according to Example 1 was made and compared to the protection against UVA-induced lipid peroxidation of pure ellagic acid. Normal human fibroblasts are treated either with the Punica granatum extract according to the invention at 0.001% or with pure ellagic acid at 3 μM for 24 h and then exposed to a UVA dose inducing no more than 20% cell death. A control was performed consisting in normal human fibroblasts exposed to a UVA dose inducing no more than 20% cell death. 8-iso-Prostanes release is assayed 2 h30 after the exposure.

O=c1oc2c(O)c(O)cc3c(=O)oc4c(O)c(O)cc1c4c23 [Ellagic acid, ellagic acid]
protection against lipid peroxidation (UV-exposed control = 0%): 35%
release of 8-iso-Prostanes (UV-exposed control = 100%): 65%
